Structures can show the parent of a compound that is named as a salt.
Legend:
HCT116 [1] = assay: AC50 cell viability (CellTiter-Glo); higher = less potent; details: 48 h
HCT116 [2] = assay: efficacy (fitted maximal change in viability relative to DMSO control); higher = less cytotoxic (negative = loss of viability); details: 48 h
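For AC50 cell viability (CellTiter-Glo) in this document: HCT116 colorectal carcinoma cells screened at five concentrations per compound, luminescent viability scaled between DMSO wells and empty wells on each plate, curves fitted per compound.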
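For efficacy (fitted maximal change in viability relative to DMSO control) in this document: Luminescence-based viability readout, five doses per compound, normalized against on-plate DMSO and empty-well controls, followed by dose-response curve fitting for every drug.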

Row | Structure (SMILES) | AC50 cell viability (HCT116 [1]) [µM] | efficacy (HCT116 [2]) [%]
1 | CC(C)(C)C(=O)OCOP(=O)(COCCn1cnc2c(N)ncnc21)OCOC(=O)C(C)(C)C [Adefovir dipivoxil] | 3.32 | -55.3
2 | COc1ccc(-c2c(-c3ccc(O)cc3O)n[nH]c2C)cc1 [PDHK RIKEN] | 20.9 | -47.1
3 | CNCCCC12CCC(c3ccccc31)c1ccccc12 [Maprotiline hydrochloride] | 20.9 | -93.9
4 | CC1=CC=C(C=C1)N(C\C2=N\CCN2)C3=CC=CC(=C3)O [Phentolamine mesilate] | 20.9 | -60
5 | CC(=O)[C@]1(O)Cc2c(O)c3c(c(O)c2[C@@H](O[C@H]2C[C@H](N)[C@H](O)[C@H](C)O2)C1)C(=O)c1ccccc1C3=O [Idarubicin hydrochloride] | 0.661 | -83
6 | COCCCOc1ccnc(CS(=O)c2nc3ccccc3[n-]2)c1C.[Na+] (configuration not stated) [Rabeprazole] | 16.6 | -43.4
7 | CO[C@H]1/C=C\C=C(\C)C(=O)NC2=CC(=O)C(NCCN(C)C)=C(C[C@@H](C)C[C@H](OC)[C@H](O)[C@@H](C)/C=C(/C)[C@@H]1OC(N)=O)C2=O [Alvespimycin hydrochloride] | 0.372 | -92.8
8 | COc1ccc(-c2ccc3c(N4CCOCC4)nc(N4C[C@@H](C)O[C@@H](C)C4)nc3n2)cc1CO | 1.66 | -45.6
9 | COc1cccc2c1C(=O)c1c(O)c3c(c(O)c1C2=O)C[C@@](O)(C(=O)CO)CC3OC1CC(N2CCOC(OC)C2)C(O)C(C)O1 (some centres not stated) [Nemorubicin] | 0.0263 | -66
10 | FC(F)(F)c1ccc(Nc2nc3cc(Oc4ccnc(-c5ncc(C(F)(F)F)[nH]5)c4)ccc3[nH]2)cc1 [RAF-265 derivative] | 14.8 | -84.8
11 | COc1ccc(N2C(=O)N(c3c(C)cccc3Cl)Cc3cnc(Nc4ccc(C5CCN(C)CC5)cc4OC)nc32)nc1 [YKL-05-099] | 10.5 | -99.4
12 | CC1=C(/C=C/C(C)=C/C=C/C(C)=C/C(=O)Nc2ccc(O)cc2)C(C)(C)CCC1 [Fenretinide] | 23.5 | -84.3
13 | COc1cccc(OCCCN)c1-c1cc(Nc2cnc(C#N)cn2)n[nH]1 [Prexasertib] | 3.72 | -111
14 | CCOc1cc2ncc(C#N)c(Nc3ccc(OCc4ccccn4)c(Cl)c3)c2cc1NC(=O)/C=C/CN(C)C [Neratinib] | 2.35 | -72.5
15 | CC(C)(O)[C@H]1CC[C@H](Nc2ccc3ncc(-c4cccc(C(F)(F)F)c4)n3n2)CC1 [TP-3654] | 1.66 | -43.7
16 | CON(C)C(=O)N1/N=C(S[C@@]1(CCCN)C2=CC=CC=C2)/C3=CC(=CC=C3F)F [Filanesib] | 20.9 | -42.1
17 | COc1cc([C@@H]2c3cc4c(cc3[C@@H](O[C@@H]3O[C@@H]5CO[C@@H](C)O[C@H]5[C@H](O)[C@H]3O)[C@H]3COC(=O)[C@H]23)OCO4)cc(OC)c1O [Etoposide] | 2.95 | -41.9
18 | CN1CCN(CCOc2cc(OC3CCOCC3)c3c(Nc4c(Cl)ccc5c4OCO5)ncnc3c2)CC1 [Saracatinib] | 18.6 | -101
19 | OC1=C(Cl)C=C(N\C2=C(\C(=O)NC2=O)C3=C(C=CC=C3)[N+]([O-])=O)C=C1 | 20.9 | -54.8

Row | Structure (SMILES) | AC50 cell viability (HCT116 [1]) [µM] | efficacy (HCT116 [2]) [%]
20 | COC1=CC2=NC=CC(=C2C=C1)OC3=CN=C(NC(=O)C/4=C(C)/N(CC(C)(C)O)N(C4=O)C5=CC=CC=C5)C=C3 [AMG-458] | 16.6 | -71.6
21 | C[C@H]1[C@H](OC(=O)CCC(=O)O)O[C@@H]2O[C@@]3(C)CC[C@H]4[C@H](C)CC[C@@H]1[C@@]24OO3 [Artesunate] | 4.17 | -62.6
22 | O=C(NOCC(O)CO)c1ccc(F)c(F)c1Nc1ccc(I)cc1F (configuration not stated) | 0.166 | -68.6
23 | NC1(C(=O)N[C@@H](CCO)c2ccc(Cl)cc2)CCN(c2ncnc3[nH]ccc23)CC1 [AZD-5363] | 11.8 | -83.1
24 | COc1ccc(Cl)c(Nc2nc3ccccc3nc2N[S+](=O)([O-])c2cccc(NC(=O)C(C)(C)N)c2)c1 [Pilaralisib] | 16.6 | -39.5
25 | O=[S+]([O-])(NCCNC/C=C/c1ccc(Br)cc1)c1cccc2cnccc12 [H-89] | 18.6 | -88.2
26 | COC(=O)Nc1nc2cc(C(=O)c3cccs3)ccc2[nH]1 [Nocodazole] | 0.166 | -65.7
27 | COc1ccc(CNc2nc(N(CCO)CCO)nc3c2ncn3C(C)C)cc1 [CVT-313] | 3.32 | -54.3
28 | O=C(NCc1ccc([S+](=O)([O-])c2cccc(C(F)(F)F)c2)cc1)c1cnc2[nH]ncc2c1 [GNE-618] | 0.0166 | -90.4
29 | Nc1nccc(-c2c(-c3ccc(F)cc3)ncn2C2CCN(Cc3ccon3)CC2)n1 | 13.2 | -56.5
30 | C/C=C/C/C=C/CCC(=O)[C@H]1O[C@H]1C(N)=O [Cerulenin] | 16.6 | -80.2
31 | CN1C(=O)c2sccc2N(C)c2nc(Nc3ccc([S+](N)(=O)[O-])cc3)ncc21 [XMU-MP-1] | 3.32 | -99.2
32 | O=C(Nc1ncc(-c2cc(C(F)F)nn2-c2c(Cl)cccc2Cl)s1)C1CC1 [BMS-3] | 0.833 | -68
33 | CCN1C(=O)N\2CC3=CC(=CC(=C3[C@@H](C)\C=C2C14CCN(CC4)CC5=CC(=CC(=C5)C)C)OC)OC | 23.5 | -91.8
34 | CN(C[C@@H]1COCCO1)[S+]([O-])(=O)NC2=CC3=C(C=C2)\C=C/C4=C(C=C(C=N4)C5=C[N](C)N=C5)C3=O [MK-2461] | 18.6 | -103
35 | COc1ccc(C[C@@H](C)[C@@H](C)Cc2ccc(OC)c(OC)c2)cc1OC [Terameprocol] | 1.05 | -51.5
36 | CC[C@]1(O)C[C@H]2CN(CCC3=C([NH]C4=C3C=CC=C4)[C@@](C2)(C(=O)OC)C5=C(OC)C=C6N(C)[C@H]7[C@](O)([C@H](OC(C)=O)[C@]8(CC)\C=C/CN9CC[C@]7([C@H]89)C6=C5)C(=O)OC)C1 [VINBLASTINE SULFATE] | 0.372 | -53.2
37 | COc1cc(-c2cc(-c3ccc(N4CCNCC4)cc3)cnc2C)cc(OC)c1OC | 9.34 | -57.2
38 | CN(C)CCN1C(=O)c2cccc3cc(N)cc(c23)C1=O [Amonafide] | 4.17 | -72.8

Row | Structure (SMILES) | AC50 cell viability (HCT116 [1]) [µM] | efficacy (HCT116 [2]) [%]
39 | Cc1cnc(Nc2ccc(F)cc2Cl)nc1-c1c[nH]c(C(=O)N[C@H](CO)c2cccc(Cl)c2)c1 | 4.17 | -115
40 | CC(=O)C1CCC2C3CC\C4=C\C(=O)CCC4(C)C3CCC12C (configuration not stated) [Progesterone] | 16.6 | -53.8
41 | Cc1ccc(Nc2ncc3c(n2)N(C)C(=O)N(c2cc(NC(=O)c4cccc(C(F)(F)F)c4)ccc2C)C3)cn1 [GNF-7] | 0.0332 | -69.3
42 | C[C@H](NC(=O)C(=O)Nc1ccccc1C(C)(C)C)C(=O)N[C@@H](CC(=O)O)C(=O)COc1c(F)c(F)cc(F)c1F [Emricasan] | 13.2 | -89.4
43 | C=CC(=O)Nc1cccc(Oc2nc(Nc3ccc(N4CCN(C)CC4)cc3)ncc2Cl)c1 [WZ-3146] | 4.17 | -101
44 | Clc1ccc(Cn2c(CN3CCCC3)nc3ccccc32)cc1 [Clemizole hydrochloride] | 23.5 | -93.1
45 | CC1(C)CCC(=C(CN2CCN(CC2)C3=CC=C(C=C3)C(=O)N[S+]([O-])(=O)C4=CC(=C(N[C@H](CCN5CCOCC5)CSC6=CC=CC=C6)C=C4)[S+]([O-])(=O)C(F)(F)F)\C1)/C7=CC=C(Cl)C=C7 [Navitoclax (ABT-263)] | 13.2 | -90.7
46 | O=C(c1ccc(F)cc1)N1CCC[C@H](c2nc(-c3ccc(F)cc3)no2)C1 | 14.8 | -35.7
47 | CN(C)CCCNC(=O)c1ccc(-c2cc(O)c3ncccc3c2)cc1 [ML324] | 14.8 | -86.4
48 | Cc1cc(C[S+](=O)([O-])c2ccccc2)cc(OCc2ccc(CN3CCC[C@@H]3CO)cc2)c1 [PF-543] | 16.6 | -92.7
49 | CC(=O)[C@]1(N)Cc2c(O)c3c(c(O)c2[C@@H](O[C@H]2C[C@H](O)[C@H](O)CO2)C1)C(=O)c1ccccc1C3=O [Amrubicin] | 6.61 | -75.8
50 | CN(c1ncccc1CNc1nc(Nc2ccc3c(c2)CC(=O)N3)ncc1C(F)(F)F)[S+](C)(=O)[O-] | 2.63 | -62.3
51 | CC(C)(C)c1cc(C=C(C#N)C#N)cc(Br)c1O [AG-1024] | 26.3 | -86.1
52 | ClC1=CC\2=C(NC(=O)\C(=C2N[C@@H]3CN4CCC3CC4)C5=NC6=C([NH]5)C=CC=C6)C=C1 [CHIR-124] | 0.833 | -80.9
53 | COCCNCc1ccc(-c2cc3nccc(Oc4ccc(NC(=S)NC(=O)Cc5ccc(F)cc5)cc4F)c3s2)nc1 [Glesatinib] | 6.61 | -80.1
54 | O=C(Nc1ccc(OC(F)(F)Cl)cc1)c1cnc(N2CC[C@@H](O)C2)c(-c2ccn[nH]2)c1 [Asciminib] | 20.9 | -80.6
55 | CO[C@@H]1[C@H](N(C)C(=O)c2ccccc2)C[C@H]2O[C@]1(C)n1c3ccccc3c3c4c(c5c6ccccc6n2c5c31)C(=O)NC4 [Midostaurin] | 1.48 | -62.7
56 | CC(C)C1=C(O)C=C(O)C(=C1)C/2=N/NC(=O)N2C3=CC4=C(C=C3)[N](C)C=C4 [Ganetespib (STA-9090)] | 0.0742 | -62.3
